Test results taken from ChEMBL document CHEMBL5647692, “The novel dual PI3K/mTOR inhibitor NVP-BGT226 displays cytotoxic activity in both normoxic and hypoxic hepatocarcinoma cells” (Oncotarget, 2015).
Active and inactive are the calls of the source. The rule behind the calls is not given here. Peptide text beside a SMILES is read from it. * marks the point of attachment. Cbz = O=C(OCc1ccccc1)*; CH2F = FC*

Experiments:
[1] = system: Mahlavu; experiment: Cytotoxicity against human Mahlavu cells assessed as reduction in cell viability at 10 uM incubated for 24 hrs under normoxia condition by MTT assay; assay type: functional, cell-based
[2] = system: Mahlavu; experiment: Cytotoxicity against human Mahlavu cells assessed as reduction in cell viability at 10 uM incubated for 24 hrs in presence of BGT226 under hypoxia condition by MTT assay; assay type: functional, cell-based
[3] = system: SNU-475; experiment: Cytotoxicity against human SNU-475 cells assessed as reduction in cell viability at 10 uM incubated for 24 hrs under hypoxia condition by MTT assay; assay type: functional, cell-based
[4] = system: SNU-475; experiment: Cytotoxicity against human SNU-475 cells assessed as reduction in cell viability at 25 uM incubated for 24 hrs in presence of BGT226 under hypoxia condition by MTT assay; assay type: functional, cell-based
[5] = system: SNU-475; experiment: Cytotoxicity against human SNU-475 cells assessed as reduction in cell viability at 10 uM incubated for 24 hrs in presence of BGT226 under hypoxia condition by MTT assay; assay type: functional, cell-based
[6] = system: Mahlavu; experiment: Induction of autophagy in human Mahlavu cells assessed as reduction in cytotoxicity at 10 to 25 uM incubated for 24 hrs by MTT assay; assay type: functional, cell-based; settings: dose 10-25 µM
[7] = system: Mahlavu; experiment: Cytotoxicity against human Mahlavu cells assessed as reduction in cell viability at 25 uM incubated for 24 hrs under hypoxia condition by MTT assay; assay type: functional, cell-based
[8] = system: SNU-475; experiment: Cytotoxicity against human SNU-475 cells assessed as reduction in cell viability at 25 uM incubated for 24 hrs under hypoxia condition by MTT assay; assay type: functional, cell-based
[9] = system: Mahlavu; experiment: Cytotoxicity against human Mahlavu cells assessed as reduction in cell viability at 25 uM incubated for 24 hrs in presence of BGT226 under hypoxia condition by MTT assay; assay type: functional, cell-based
[10] = system: SNU-475; experiment: Induction of autophagy in human SNU-475 cells assessed as reduction in cytotoxicity at 10 to 25 uM incubated for 24 hrs by MTT assay; assay type: functional, cell-based; settings: dose 10-25 µM
[11] = system: Mahlavu; experiment: Cytotoxicity against human Mahlavu cells assessed as reduction in cell growth at 10 uM incubated for 24 hrs under hypoxia condition by MTT assay; assay type: functional, cell-based
[12] = system: HepG2; experiment: Cytotoxicity against human HepG2 cells assessed as reduction in cell viability at 10 uM incubated for 24 hrs by MTT assay; assay type: functional, cell-based
[13] = system: Hep 3B2; experiment: Cytotoxicity against human Hep3B cells assessed as reduction in cell growth at 10 uM incubated for 24 hrs under hypoxia condition by MTT assay; assay type: functional, cell-based
[14] = system: Hep 3B2; experiment: Cytotoxicity against human Hep3B cells assessed as reduction in cell viability at 10 uM incubated for 24 hrs by MTT assay; assay type: functional, cell-based
[15] = system: SNU-449; experiment: Induction of apoptosis in human SNU-449 cells assessed as necrotic cells at 75 uM incubated for 24 hrs by Annexin-V/7-AAD staining based muse cell analyzer method (reference value: 0.95 %); assay type: functional
[16] = system: Mahlavu; experiment: Induction of apoptosis in human Mahlavu cells assessed as early apoptotic cells at 75 uM incubated for 24 hrs by Annexin-V/7-AAD staining based muse cell analyzer method (reference value: 6.57 %); assay type: functional
[17] = system: SNU-449; experiment: Induction of apoptosis in human SNU-449 cells assessed as viable cells at 75 uM incubated for 24 hrs by Annexin-V/7-AAD staining based muse cell analyzer method (reference value: 90.07 %); assay type: functional; settings: read-out: Activity
[18] = system: Mahlavu; experiment: Induction of apoptosis in human Mahlavu cells assessed as viable cells at 75 uM incubated for 24 hrs by Annexin-V/7-AAD staining based muse cell analyzer method (reference value: 90.52 %); assay type: functional; settings: read-out: Activity
[19] = system: SNU-449; experiment: Induction of apoptosis in human SNU-449 cells assessed as early apoptotic cells at 75 uM incubated for 24 hrs by Annexin-V/7-AAD staining based muse cell analyzer method (reference value: 3.95 %); assay type: functional
[20] = system: SNU-449; experiment: Induction of apoptosis in human SNU-449 cells assessed as late apoptotic cells at 75 uM incubated for 24 hrs by Annexin-V/7-AAD staining based muse cell analyzer method (reference value: 5.03 %); assay type: functional
[21] = system: Mahlavu; experiment: Induction of apoptosis in human Mahlavu cells assessed as necrotic cells at 75 uM incubated for 24 hrs by Annexin-V/7-AAD staining based muse cell analyzer method (reference value: 0.67 %); assay type: functional
[22] = system: Mahlavu; experiment: Induction of apoptosis in human Mahlavu cells assessed as late apoptotic cells at 75 uM incubated for 24 hrs by Annexin-V/7-AAD staining based muse cell analyzer method (reference value: 2.24 %); assay type: functional

CCN(CC)CCCC(C)Nc1ccnc2cc(Cl)ccc12 (configuration not stated)
Activity [1]: Active
Activity [2]: Active
Activity [3]: Active
Activity [4]: Active
Activity [5]: Active
Activity [6]: Active
Activity [7]: Active
Activity [8]: Active
Activity [9]: Active
Activity [10]: Active

Cn1cnc(N)c2ncnc1-2
Activity [11]: inactive
Activity [12]: inactive
Activity [13]: inactive
Activity [14]: inactive

COC(=O)C[C@H](NC(=O)[C@H](C)NC(=O)[C@@H](NC(=O)OCc1ccccc1)C(C)C)C(=O)CF (Cbz-Val-Ala-Asp(OMe)-CH2F)
Activity [15]: 0.53%
Activity [16]: 5%
viability at 75 µM [17]: 89.5%
viability at 75 µM [18]: 89.7%
Activity [19]: 4.6%
Activity [20]: 5.35%
Activity [21]: 1.52%
Activity [22]: 3.78%
